Legend:
MIA PaCa-2-Fluc [1] = experiment: Orthotopic pancreatic cancer animal model, change in size of tumor (IVIS); format: in vivo, mouse; settings: IVIS imaging; combination: week 1 and 2; RdB/IL-12/DCN 2×10^10 VP i.p. three times, gemcitabine 100 mg/kg twice weekly for 3 weeks
Experimental: In order to construct an orthotopic pancreatic cancer animal model, a human pancreatic cancer cell line MIA PaCa-2-Fluc was selected and used in the experiment. Tumor cells were injected into the mouse pancreas, and two weeks later, the production of tumors was confirmed through an IVIS imaging machine. Thereafter, RdB/IL-12/DCN was intraperitoneally administered three times at 2×10^10 VP/500 μL every two days, and gemcitabine was administered twice weekly at 100 mg/kg for a total of 3 weeks. Meanwhile, a PBS only administration group was used as a negative control. Before RdB/IL-12/DCN was administered, the size and photon values of tumors were confirmed using the IVIS imaging machine, and at week 1, 2, and 3 after the administration, the changes in size of tumors were quantitatively compared.

MIA PaCa-2-Fluc [2] = experiment: Histological evaluation of orthotopic pancreatic tumors (H&E, PCNA, TUNEL, E1A); format: in vivo, mouse; settings: orthotopic MIA PaCa-2-Fluc tumor tissue
Experimental: It was intended to histologically evaluate the anti-tumor effect of the aforementioned experiments. First, the formation of tumors was induced by injecting a human pancreatic cancer cell line MIA PaCa-2-Fluc into the mouse pancreas, and then PBS, gemcitabine, RdB/IL-12/DCN, or gemcitabine+RdB/IL-12/DCN was each administered thereto. Thereafter, hematoxylin-eosin (H & E) staining and PCNA immunohistological staining were performed after collecting the tumor tissues. Further, a TUNEL assay was performed in order to confirm the degree of apoptosis of tumor cells, and immunohistological staining using an antibody against an E1A protein of the adenovirus was performed in order to confirm whether the anti-tumor effect was caused by the replication of the adenovirus present in tumor tissues.

MIA PaCa-2 [3] = experiment: MTT assay, RdB/IL-12/DCN with gemcitabine; format: cell-based, human; settings: gemcitabine alone at 100 μg/ml
Experimental: (§1) For this purpose, human pancreatic cancer cell lines PANC-1, MIA PaCa-2, and AsPC-1 were infected with RdB/IL-12/DCN of the present invention at a MOI of 0.5 or 2, and treated together with gemcitabine (0.05, 0.2, 1, 2, 5, 20, or 100 μg/ml), and then the degree of apoptosis was observed through MTT assay.

AsPC-1 = experiment: MTT assay, RdB/IL-12/DCN with gemcitabine; format: cell-based, human; settings: gemcitabine alone at 100 μg/ml
Experimental: as §1

PANC-1 [4] = experiment: MTT assay, RdB/IL-12/DCN with gemcitabine; format: cell-based, human; settings: gemcitabine alone at 100 μg/ml
Experimental: as §1

MIA PaCa-2 [5] = experiment: Pancreatic cancer subcutaneous animal model; format: in vivo, mice; settings: MIA PaCa-2 subcutaneous; RdB/IL-12/RLX intratumoral, gemcitabine 10 mg/kg
Experimental: (§2) It was intended to verify the anti-tumor effect by the co-administration of RdB/IL-12/RLX and gemcitabine in a pancreatic cancer subcutaneous animal model. The formation of tumors was induced by injecting PANC-1, MIA PaCa-2, or BxPC-3 cells subcutaneously into mice, a change in size of tumors was observed while RdB/IL-12/RLX was administered alone or RdB/IL-12/RLX was administered (administered intratumorally) in combination with gemcitabine (10 mg/kg). Meanwhile, a PBS only administration group was used as a negative control.

PANC-1 [6] = experiment: Pancreatic cancer subcutaneous animal model; format: in vivo, mice; settings: PANC-1 subcutaneous; RdB/IL-12/RLX intratumoral, gemcitabine 10 mg/kg
Experimental: as §2

BxPC-3 = experiment: Pancreatic cancer subcutaneous animal model; format: in vivo, mice; settings: BxPC-3 subcutaneous; RdB/IL-12/RLX intratumoral, gemcitabine 10 mg/kg
Experimental: as §2

MIA PaCa-2 [7] = experiment: Pancreatic cancer xenograft animal model, extracellular matrix and apoptosis; format: in vivo, mice; settings: RdB/IL-12/RLX 2×10^6 pfu, gemcitabine 1.5 mg/kg
Experimental: In order to construct a pancreatic cancer xenograft animal model, 5×10^5 of MIA PaCa-2 were injected subcutaneously into mice, and then when the size of tumors reached 50 to 100 mm^3, a change in extracellular matrix and an apoptosis effect were observed while 2×10^6 pfu of RdB/IL-12/RLX were administered alone or administered in combination with 1.5 mg/kg of gemcitabine. During the co-administration, RdB/IL-12/RLX was intratumorally administered three times in total at an interval of 2 days, and gemcitabine was intraperitoneally administered once. Thereafter, immunohistological staining and hematoxylin-eosin (H & E) staining were performed, and in order to confirm the degree of apoptosis, a TUNEL assay and cleaved caspase 3 immunostaining were performed. Meanwhile, a PBS only administration group was used as a negative control.

B16-F10 = experiment: Animal model with induced resistance to anticancer agent (taxol), RdB/IL-12/DCN; format: in vivo, C57BL/6 mice; settings: day 16 (15 days after first taxol administration); taxol 10 mg/kg i.p., RdB/IL-12/DCN 5×10^5 VP, αPD-1 200 μg
Experimental: Under the conditions where the anti-tumor effect caused by an anticancer agent is insignificant due to the resistance to the anticancer agent, and the like, it was intended to verify an in vivo anti-tumor effect by the co-administration of RdB/IL-12/DCN and the immune checkpoint inhibitor (an anti PD-1 antibody; αPD-1). After a B16-F10 mouse melanoma cell line was injected (5×10^5 cells) subcutaneously into the flank of C57BL/6 mice, taxol (day 1, 2, and 3; 10 mg/kg) was injected intraperitoneally into the formed tumor (day 1, about 50 mm^3), and after RdB/IL-12/DCN was administered alone (day 3, 5, 7, and 9; 5×10^5 VP), αPD-1 was administered alone (day 4, 7, 8, and 10; 200 μg), or RdB/IL-12/DCN and αPD-1 were co-administered (under the same conditions, respectively), the growth of tumors was observed. Meanwhile, a PBS only administration group was used as a negative control.

Row | Structure (SMILES) | change in size of tumors (MIA PaCa-2-Fluc [1]) | necrosis of cells in tumors (H & E staining) (MIA PaCa-2-Fluc [2]) | ability to kill the pancreatic cancer cell lines (MTT assay) (MIA PaCa-2 [3]) | ability to kill the pancreatic cancer cell lines (MTT assay) (AsPC-1) | ability to kill the pancreatic cancer cell lines (MTT assay) (PANC-1 [4]) | change in size of tumors (MIA PaCa-2 [5]) | change in size of tumors (PANC-1 [6]) | change in size of tumors (BxPC-3) | necrosis or apoptosis of cells in tumors (H & E, TUNEL, cleaved caspase 3) (MIA PaCa-2 [7]) | size of tumors (B16-F10) [mm^3]
1 | Nc1ccn([C@@H]2O[C@H](CO)[C@@H](O)C2(F)F)c(=O)n1 [gemcitabine] | sharp increases in size of tumors | hardly observed | at most 30% | at most 30% | at most 30% | sharp increase in size of tumors | sharp increase in size of tumors | sharp increase in size of tumors | almost hardly proceeded or was insignificant | 
2 | CC(=O)O[C@H]1C(=O)[C@@]2(C)[C@H]([C@H](OC(=O)c3ccccc3)[C@]3(O)C[C@H](OC(=O)[C@H](O)[C@@H](NC(=O)c4ccccc4)c4ccccc4)C(C)=C1C3(C)C)[C@]1(OC(C)=O)CO[C@@H]1C[C@@H]2O [taxol] |  |  |  |  |  |  |  |  |  | 5394.5±288.2

Reference: patent publication US20250082702A1, “ANTICANCER COMPOSITION COMPRISING RECOMBINANT ADENOVIRUS EXPRESSING DEGRADATION FACTOR FOR EXTRACELLULAR MATRIX” (priority 2016, published 2025)
